Source: patent EP2730584B1, “PROTEIN-P[…] OBTAINED FROM NERVOUS TISSUE OF HOOFED LIVESTOCK EMBRYOS, PROCESS FOR PREPARING SAME AND PHARMACEUTICAL COMPOSITION” (Aktsionernoe Obschestvo "Pharm-Sintez", priority 2011, dated 2012)

Test system: mice marrow cells
Method: The study objective was detection and quantitative estimate of cytogenetic (mutagenic) activity of pharmacologic substances in polychromatophil cells (PCC) of mammal marrow. The method is based on microscopic recording of cells with micronuclei.
The experiments were performed to 2 months old male and female F1 (CBAx C57BI6/J) cross-breed mice weighing 18-20 g. Each group included 6 animals. The animals were kept at 12 hours light pattern with free food and water access. Animal experiments for assessment of mutagenic properties of the PPNC with single and five-time dosing were conducted in compliance with official records. Three sessions of experiments were carried out with corresponding controls: therapeutic dose was tested on male animals with a single introduction; subtoxic dose was tested on male animals with a single introduction; therapeutic dose was tested on male animals with a single introduction; subtoxic dose was tested on male animals and female with five-time introduction. […] The PPNC dosing for assessment of mutagenic activity was calculated based on the maximum human recommended daily therapeutic dose (TD). […] In order to calculate an experiment dosing for mice, a conversion factor is recommended that takes into account a human or animal body surface area to weight ratio. In our study, it was 8.33. Therefore, the mice TD was approximately 8.33 x human TD (0.42 mg/kg).
As a subtoxic dose, 10mg/kg, the maximum possible in this experiment conditions dosing was used, as the substance was presented in 0.1 mg/ml concentration, and the normally used amount of substance for mice is 0.1 ml per 10 g.
Seven animal groups were formed: four experimental groups and three corresponding reference groups. The substance in the amount of 0.1 mg/kg was introduced five times at 24 hours interval to males and females. […]
Marrow cell preparations for micronuclei count were made by a standard method in compliance with common guidelines [20]. […] 2,000 polychromatophil cells from each animal were analyzed in encoded preparations. […]

## O=P1(N(CCCl)CCCl)NCCCO1 (stereo not drawn) [Cyclophosphamide, cyclophosphamide]
20 mg/kg intraperitoneally, male mice, 3.16 % in reference
  frequency of micronucleus cells: 62.1%
20 mg/kg intraperitoneally, male mice, P<0.001
  increased frequency of micronucleus cells: 19.6 times
20 mg/kg, compared to control P<0.005
  polychromatophilic to normochromatic erythrocytes ratio: found to shift to the latter
